Data from patent publication US6117841A, “Substituted peptidylamine calcium channel blockers” (Warner-Lambert Company, priority 1999, dated 2000).

Key:
[1] = system: DBA/2 mice; experiment: In vivo anticonvulsant activity, sound-induced tonic seizures in DBA/2 mice; details: tested 15 or 45 minutes after injection; for DBA/2 mice % Protection dose @ 30 mg/kg: 30 mg/kg intravenous
Method: A compound of the present invention was dissolved in water using 10% (weight/volume) Emulphor (GAF Corp., Wayne, N.J.) surfactant. Substances were administered by intravenous injection into the retro-orbital venous sinus. All testing was performed 15 minutes or 45 minutes after drug injection. All the male mice, 3-4 weeks old were obtained from Jackson Laboratories Bar Harbour, Me. Immediately before anticonvulsant testing, mice were placed upon a wire mesh, 4 inches square suspended from a steel rod. The square was slowly inverted through 180 degrees and mice observed for 30 seconds. Any mouse falling from the wire mesh was scored as ataxia.
Mice were placed into an enclosed acrylic plastic chamber (21 cm height, approximately 30 cm diameter) with a high-frequency speaker (4 cm diameter) in the center of the top lid. An audio signal generator (Protek model B-810) was used to produce a continuous sinusoidal tone that was swept linearly in frequency between 8 kHz and 16 kHz once each 10 msec. The average sound pressure level (SPL) during stimulation was approximately 100 dB at the floor of the chamber. Mice were placed within the chamber and allowed to acclimatize for 1 minute. DBA/2 mice in the vehicle-treated group responded to the sound stimulus (applied until tonic extension occurred, or for a maximum of 60 sec) with a characteristic seizure sequence consisting of wild running followed by clonic seizures, and later by tonic extension, and finally by respiratory arrest and death in 80% or more of the mice. In vehicle-treated mice, the entire sequence of seizures to respiratory arrest lasts approximately 15-20 seconds.
The incidence of all the seizure phases in the drug-treated and vehicle-treated mice was recorded, and the occurrence of tonic seizures were used for calculatine anticonvulsant ED50 values by probit analysis. Mice were used only once for testing at each time and dose point.

[2] = target: T1, N-type Ca^2+ Channel (Homo sapiens, UniProt Q00975); experiment: Measurement of N-type Ca2+ channel blocking potencies in IMR-32 cells using the fluorescent Ca2+ indicator Indo-1; assay type: cell-based; details: IMR-32 cells, K+ depolarization, 5 μM nitrendipine to block L-type channels; read-out: IMR 32 IC50
T1 construct: host or cells: IMR-32 cells differentiated with dibutyryl cAMP and bromodeoxyuridine
T1 sequence (Q00975 whole entry): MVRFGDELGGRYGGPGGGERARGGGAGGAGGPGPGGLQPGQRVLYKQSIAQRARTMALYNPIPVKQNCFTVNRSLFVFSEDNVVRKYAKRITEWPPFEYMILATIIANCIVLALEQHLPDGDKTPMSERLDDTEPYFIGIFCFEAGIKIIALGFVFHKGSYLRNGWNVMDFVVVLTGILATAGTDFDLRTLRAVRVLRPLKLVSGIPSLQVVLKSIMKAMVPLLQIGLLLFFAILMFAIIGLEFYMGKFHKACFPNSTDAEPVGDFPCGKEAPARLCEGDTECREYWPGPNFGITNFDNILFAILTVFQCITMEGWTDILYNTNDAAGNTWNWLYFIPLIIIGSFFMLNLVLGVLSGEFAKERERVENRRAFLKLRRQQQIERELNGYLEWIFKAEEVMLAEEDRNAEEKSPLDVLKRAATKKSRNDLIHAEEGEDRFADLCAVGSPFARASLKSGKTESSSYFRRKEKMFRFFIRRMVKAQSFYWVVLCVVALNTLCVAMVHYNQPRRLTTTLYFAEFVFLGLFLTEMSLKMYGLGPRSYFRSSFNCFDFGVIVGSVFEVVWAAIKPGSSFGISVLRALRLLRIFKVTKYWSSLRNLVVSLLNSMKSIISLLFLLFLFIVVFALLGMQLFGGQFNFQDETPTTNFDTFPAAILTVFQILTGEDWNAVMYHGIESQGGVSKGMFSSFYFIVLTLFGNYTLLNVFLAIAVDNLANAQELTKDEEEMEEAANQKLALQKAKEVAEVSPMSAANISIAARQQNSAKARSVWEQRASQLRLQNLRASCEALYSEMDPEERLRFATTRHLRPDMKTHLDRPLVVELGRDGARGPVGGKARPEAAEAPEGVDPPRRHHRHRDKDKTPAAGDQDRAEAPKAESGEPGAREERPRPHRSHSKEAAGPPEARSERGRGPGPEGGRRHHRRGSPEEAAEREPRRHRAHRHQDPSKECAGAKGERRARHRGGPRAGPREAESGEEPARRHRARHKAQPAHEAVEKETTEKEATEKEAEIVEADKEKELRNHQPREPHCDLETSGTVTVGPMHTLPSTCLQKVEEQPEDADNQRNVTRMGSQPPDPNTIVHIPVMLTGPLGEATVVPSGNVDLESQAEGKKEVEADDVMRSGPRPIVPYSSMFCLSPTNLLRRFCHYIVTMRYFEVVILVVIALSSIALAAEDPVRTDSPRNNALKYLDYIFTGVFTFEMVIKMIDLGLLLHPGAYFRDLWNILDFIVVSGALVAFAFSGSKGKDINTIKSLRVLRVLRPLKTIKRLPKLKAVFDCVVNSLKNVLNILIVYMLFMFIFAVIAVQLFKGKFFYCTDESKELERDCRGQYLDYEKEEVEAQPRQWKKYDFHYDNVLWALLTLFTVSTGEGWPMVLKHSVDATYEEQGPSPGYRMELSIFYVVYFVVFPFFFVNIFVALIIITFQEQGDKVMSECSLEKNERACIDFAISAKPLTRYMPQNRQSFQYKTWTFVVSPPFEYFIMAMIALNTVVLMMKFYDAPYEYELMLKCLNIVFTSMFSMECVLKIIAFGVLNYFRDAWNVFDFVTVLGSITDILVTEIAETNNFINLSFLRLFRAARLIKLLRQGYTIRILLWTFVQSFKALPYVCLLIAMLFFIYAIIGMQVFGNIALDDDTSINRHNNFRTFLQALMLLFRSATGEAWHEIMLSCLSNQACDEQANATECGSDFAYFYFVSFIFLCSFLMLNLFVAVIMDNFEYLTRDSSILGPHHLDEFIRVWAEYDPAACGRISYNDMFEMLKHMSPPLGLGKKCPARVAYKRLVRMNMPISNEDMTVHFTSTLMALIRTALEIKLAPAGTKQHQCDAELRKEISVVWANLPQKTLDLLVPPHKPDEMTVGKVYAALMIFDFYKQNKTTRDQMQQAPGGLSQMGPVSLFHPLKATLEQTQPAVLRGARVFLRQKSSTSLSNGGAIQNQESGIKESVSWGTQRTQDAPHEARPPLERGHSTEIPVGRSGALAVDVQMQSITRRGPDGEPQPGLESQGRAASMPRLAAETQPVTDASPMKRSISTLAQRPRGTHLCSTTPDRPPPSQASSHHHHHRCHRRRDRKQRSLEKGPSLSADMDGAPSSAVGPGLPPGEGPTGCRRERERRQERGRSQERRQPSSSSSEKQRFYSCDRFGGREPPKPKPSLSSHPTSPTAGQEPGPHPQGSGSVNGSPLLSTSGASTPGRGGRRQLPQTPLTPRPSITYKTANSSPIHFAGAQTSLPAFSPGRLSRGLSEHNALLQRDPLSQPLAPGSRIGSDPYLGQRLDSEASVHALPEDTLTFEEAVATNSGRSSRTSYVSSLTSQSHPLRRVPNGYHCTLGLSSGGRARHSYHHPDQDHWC
T1 sequence (P54284 whole entry partner): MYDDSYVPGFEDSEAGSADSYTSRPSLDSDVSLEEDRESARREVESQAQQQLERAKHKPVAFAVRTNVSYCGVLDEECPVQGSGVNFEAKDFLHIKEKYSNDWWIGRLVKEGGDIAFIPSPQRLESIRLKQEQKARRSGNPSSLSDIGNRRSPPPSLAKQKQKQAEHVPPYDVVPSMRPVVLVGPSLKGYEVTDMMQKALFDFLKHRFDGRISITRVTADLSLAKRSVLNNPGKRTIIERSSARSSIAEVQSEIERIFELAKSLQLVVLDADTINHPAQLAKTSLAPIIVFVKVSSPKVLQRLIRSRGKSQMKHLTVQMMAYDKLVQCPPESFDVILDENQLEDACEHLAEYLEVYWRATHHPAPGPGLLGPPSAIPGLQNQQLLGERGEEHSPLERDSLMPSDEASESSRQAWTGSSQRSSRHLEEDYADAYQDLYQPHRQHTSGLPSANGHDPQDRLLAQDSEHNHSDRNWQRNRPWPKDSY
T1 sequence (P54289 25-946 partner limits assumed): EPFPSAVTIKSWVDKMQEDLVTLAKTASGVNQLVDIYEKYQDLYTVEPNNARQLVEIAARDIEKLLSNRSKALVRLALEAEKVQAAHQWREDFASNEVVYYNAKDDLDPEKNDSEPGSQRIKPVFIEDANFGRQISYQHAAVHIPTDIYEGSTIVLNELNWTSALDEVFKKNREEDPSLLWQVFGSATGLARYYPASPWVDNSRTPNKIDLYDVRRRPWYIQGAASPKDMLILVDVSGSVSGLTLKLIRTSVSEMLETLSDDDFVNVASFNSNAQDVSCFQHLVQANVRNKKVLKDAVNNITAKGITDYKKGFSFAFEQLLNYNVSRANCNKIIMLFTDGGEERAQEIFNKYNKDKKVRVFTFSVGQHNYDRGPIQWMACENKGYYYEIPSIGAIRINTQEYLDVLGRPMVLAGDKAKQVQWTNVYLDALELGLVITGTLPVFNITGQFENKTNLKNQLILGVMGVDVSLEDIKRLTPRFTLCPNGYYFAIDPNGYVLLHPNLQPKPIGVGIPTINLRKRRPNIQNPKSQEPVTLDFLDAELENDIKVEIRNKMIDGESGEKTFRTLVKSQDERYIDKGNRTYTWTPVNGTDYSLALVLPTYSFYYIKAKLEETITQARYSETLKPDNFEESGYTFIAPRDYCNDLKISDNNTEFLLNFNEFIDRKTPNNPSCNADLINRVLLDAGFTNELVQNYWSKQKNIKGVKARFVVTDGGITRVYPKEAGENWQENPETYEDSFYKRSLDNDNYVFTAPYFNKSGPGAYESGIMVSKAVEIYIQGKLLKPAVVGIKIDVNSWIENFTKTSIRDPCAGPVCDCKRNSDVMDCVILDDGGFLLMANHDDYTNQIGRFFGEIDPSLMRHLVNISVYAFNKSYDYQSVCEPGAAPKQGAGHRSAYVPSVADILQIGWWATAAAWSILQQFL
T1 sequence (P54289 947-1103 partner limits assumed): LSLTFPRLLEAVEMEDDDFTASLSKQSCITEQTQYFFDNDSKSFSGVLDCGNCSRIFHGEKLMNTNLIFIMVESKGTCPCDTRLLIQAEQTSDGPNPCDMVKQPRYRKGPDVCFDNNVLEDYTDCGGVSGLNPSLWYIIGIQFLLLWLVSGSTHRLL
Procedure, shortened: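 IMR-32 cells were differentiated 7–13 days (1 mM dibutyryl cAMP, 2.5 µM BrdU) and Indo-1-loaded. They were preincubated 10 min at 30 °C with compound and 5 µM nitrendipine in HEPES/Tris pH 7.4 HBSS with 0.5% BSA, then KCl/CaCl2-depolarized. The peak-minus-basal 400/490 nm emission ratio gave IC50 by four-parameter logistic fit.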

| Structure (SMILES) | DBA/2 mice % Protection dose @ 30 mg/kg [1] [%] | IC50 [2] [µM] | DBA/2 mice % Protection (10 mg/kg) ([1]; 10 mg/kg intravenous) [%] |
| --- | --- | --- | --- |
| CC(C)CC(C(=O)NC(Cc1ccc(OCc2ccccc2)cc1)C(=O)NC(C)(C)C)N(C)Cc1ccc(C(C)(C)C)cc1 (stereo not drawn) [Example 13, [S-(R*,R*)]-2-[(4-tert-Butyl-benzyl)-methyl-amino]-4-methyl-pentanoic acid [2-(4-benzyloxy-phenyl)-1-tert-butylcarbamoyl-ethyl]-amide] | 60 | 0.04 | – |
| CC(C)C[C@@H](C(=O)N[C@@H](Cc1ccc(OCc2ccccc2)cc1)C(=O)NC(C)(C)C)N(C)CCC(C)O (relative stereo) [Example 97, [S-(R*,R*)]-2-[(3-Hydroxy-butyl)-methyl-amino]-4-methyl-pentanoic acid [2-(4-benzyloxy-phenyl)-1-tert-butylcarbamoyl-ethyl]-amide] | 40 | 2.2 | – |
| CCC(C)N(C)C(CC(C)C)C(=O)NC(Cc1ccc(OCc2ccccc2)cc1)C(=O)NC(C)(C)C (racemic) [Example 103, [S-[R*,R*,(RS)]]-2-(sec-Butyl-methyl-amino)-4-methyl-pentanoic acid [2-(4-benzyloxy-phenyl)-1-tert-butylcarbamoyl-ethyl]-amide] | – | 1.5 | 100 |
| CC(C)C[C@@H](C(=O)N[C@@H](Cc1ccc(OCc2ccccc2)cc1)C(=O)NC(C)(C)C)N(C)Cc1ccco1 (relative stereo) [Example 90, [S-(R*,R*)]-2-(Furan-2-ylmethyl-methyl-amino)-4-methyl-pentanoic acid [2-(4-benzyloxy-phenyl)-1-tert-butylcarbamoyl-ethyl]-amide] | 60 | 0.9 | – |
| CC(C)CC(C(=O)NC(Cc1ccc(OCc2ccccc2)cc1)C(=O)NC(C)(C)C)N(C)C1C=CCCC1 (stereo not drawn) [Example 47, [S-(R*,R*)]-2-(Cyclohex-2-enyl-methyl-amino)-4-methyl-pentanoic acid [2-(4-benzyloxy-phenyl)-1-tert-butylcarbamoyl-ethyl]-amide] | 100 | 0.28 | – |
| CC(C)CCN(C)[C@@H](CC(C)C)C(=O)N[C@@H](Cc1ccc(OCc2ccccc2)cc1)C(=O)NC(C)(C)C (relative stereo) [Example 7, [S-(R*,R*)]-4-Methyl-2-[methyl-(3-methyl-butyl)-amino]-pentanoic acid [2-(4-benzyloxy-phenyl)-1-tert-butylcarbamoyl-ethyl]-amide] | 100 | 0.32 | – |
| CC(C)C[C@H](NC1CCCCC1)C(=O)N[C@@H](Cc1ccc(OCc2ccccc2)cc1)C(=O)OC(C)(C)C (relative stereo) [Example 93, [S-(R*,R*)]-3-(4-Benzyloxy-phenyl)-2-(2-cyclohexylamino-4-methyl-pentanoylamino)-propionic acid tert-butyl ester] | 80 | 0.2 | – |
| CC(C)=CCNC(CC(C)C)C(=O)NC(Cc1ccc(OCc2ccccc2)cc1)C(=O)OC(C)(C)C (stereo not drawn) [Example 31, [S-(R*,R*)]-3-(4-Benzyloxy-phenyl)-2-[4-methyl-2-(3-methyl-but-2-enylamino)-pentanoylamino]-propionic acid tert-butyl ester] | 100 | 0.32 | – |
